Source: patent publication US20160106770A1, “EPIGENETIC MECHANISMS OF ANTI-FIBROTIC ACTION FOR THE LIVER” (University of Southern California, priority 2011, published 2016)

Key:
[1] = tested on: culture-activated rat primary HSCs; assay: Morphologic reversal of culture-activated HSCs (phase contrast / UV autofluorescence microscopy); format: cell-based; details: concentration of 135 and 270 μM
Protocol: The purity of the cells, as determined by phase contrast microscopy and ultraviolet-excited fluorescence microscopy, exceeded 96%, and the viability as determined by trypan blue exclusion exceeded 94%. In vitro activation of HSCs was achieved by culturing rat HSCs in Dulbecco's modified Eagle's medium (DMEM) with 1.0 g/liter glucose, 10% fetal bovine serum and 1% antibiotics on plastic dish for 3, 5 or 7 days. Culture-activated rat primary HSCs were treated with the YGW or starch (control) aqueous extract at 25% (v/v). To obtain the extract, the YGW or starch powder (provided by S.P. Pharmaceutics Inc.) was suspended in DMEM at the concentration of 35 mg/ml, mixed thoroughly with a vortex for 5 min, and centrifuged at ×150 g for 30 min to collect the supernatant. This supernatant was designated as 100% extract and used after filter-sterilization. RA and BC (Sigma Chemical Co) were dissolved in DMSO and tested at the concentration of 67.5˜270 μM.

[2] = tested on: culture-activated rat primary HSCs; assay: Real time quantitative PCR of cultured HSCs; format: cell-based; details: for expression of Necdin / expression of Wnt3a / expression of Wnt10b: 270 μM, day 7 HSCs vs vehicle; for EZH2 expression: day 7 HSCs, RA or BC
From the text: HSCs were isolated from normal male Wistar rats, C57B1/6 and Coll-GFP mice by in situ digestion of the liver and arabinogalactan gradient ultracentrifugation by the Non-Parenchymal Liver Cell Core of the Southern California Research Center for ALPD and Cirrhosis as described previously in Cheng J H et al,. Wnt antagonism inhibits hepatic stellate cell activation and liver fibrosis, Am J Physiol Gastrointest Liver Physiol, 2007 Nov 15; and Zhu N L et al., The […] pathway causes epigenetic peroxisome proliferator-activated receptor gamma repression in hepatic stellate cells, J Biol Chem, 2010 Oct 1; 285(40):30463-30471, both of which are incorporated by reference herein in their entirety as though fully set forth. The purity of the cells, as determined by phase contrast microscopy and ultraviolet-excited fluorescence microscopy, exceeded 96%, and the viability as determined by trypan blue exclusion exceeded 94%. In vitro activation of HSCs was achieved by culturing rat HSCs in Dulbecco's modified Eagle's medium (DMEM) with 1.0 g/liter glucose, 10% fetal bovine serum and 1% antibiotics on plastic dish for 3, 5 or 7 days. Culture-activated rat primary HSCs were treated with the YGW or starch (control) aqueous extract at 25% (v/v). To obtain the extract, the YGW or starch powder (provided by S.P. Pharmaceutics Inc.) was suspended in DMEM at the concentration of 35 mg/ml, mixed thoroughly with a vortex for 5 min, and centrifuged at ×150 g for 30 min to collect the supernatant. This supernatant was designated as 100% extract and used after filter-sterilization. RA and BC (Sigma Chemical Co) were dissolved in DMSO and tested at the concentration of […]. Total RNA was extracted from the cells using TRIzol reagent (Invitrogen) or RNeasy Mini kit (Qiagen). One microgram of RNA was reverse transcribed to cDNA by using SuperScript III First-Strand Synthesis System (Invitrogen) and amplified by 40 cycles using primers listed below and the SYBR Green PCR Master mix reagent (AB Applied Biosystem). Each threshold cycle (Ct) value was first normalized to the 36B4 Ct value of a sample and subsequently compared between the treatment and control samples.

Pparγ gene = assay: Chromatin immunoprecipitation (ChIP) at the Pparγ gene in HSCs; format: cell-based, rat; details: day 7 HSCs, RA or BC
Protocol: For assessing Pparγ epigenetic regulation, carrier ChIP was performed using Raji cells as the source of carrier chromatin. For native ChIP, 20 μg of HSC chromatin was mixed with 80 μg of Raji cell chromatin. For cross-link ChIP, Raji cells (1.4×10^7 cells) were mixed to HSCs (0.2×10^6 cells) and fixed with 1% formaldehyde on the rotating platform for 5-10 minutes at room temperature followed by addition of glycine to a final concentration of 0.125M. After lysis of the cells with SDS buffer (1% SDS, 10 mM EDTA, 50 mM Tris-HCl pH8.1) with protease inhibitors, the lysates were sonicated and snap frozen in aliquots. For chromatin IP, diluted samples were first pre-cleared using protein G-agarose beads and then incubated with antibody against […], MeCP2, H3K27me2, H3K4me2 and […] (Abcam) at 1 μg/μl at 4° C. for overnight followed by precipitation with protein G agarose beads. After elution of immunoprecipitated complex, crosslinking was reversed with 5N NaCl and proteins digested with protease K. Extracted chromatin was subjected to real-time PCR using the primers flanking a segment within Pparγ promoter or exon as previously described in Mann J et al., MeCP2 controls an epigenetic pathway that promotes myofibroblast transdifferentiation and fibrosis, Gastroenterology, 2010 Feb; 138(2):705-14, 714, which is incorporated herein by reference as though fully set forth. Ct values of the samples with non-immune IgG were subtracted and compared to their respective input Ct values.

rat HSCs = assay: Immunoblot analysis of cultured HSCs; format: cell-based; details: day 7 HSCs, RA or BC
Protocol: Whole cell extracts were prepared as previously described in Hazra S. et al., Peroxisome proliferator-activated receptor gamma induces a phenotypic switch from activated to quiescent hepatic stellate cells, J Biol Chem, 2004 Mar 19; 279 (12):11392-11401, which is incorporated by reference herein as though fully set forth. Equal amounts of the extract (20 μg) were separated by 8-15% SDS-PAGE and the proteins were transferred to nitrocellulose membranes (Bio-Rad, Hercules, Calif.). MeCP2, type I collagen, and β-actin were detected by incubating with rabbit polyclonal anti-MeCP2 (1:1000) (Abcam), antitype I collagen (1:4000), and anti-β-actin (1:5000) primary antibodies (Santa Cruz Biotechnology) in TBS (100 mM Tris-HCl, 1.5 M NaCl, pH 7.4) with 5% nonfat milk overnightat 4° C. followed by incubation with horseradish peroxidase conjugated goat anti-rabbit secondary antibodies (1:4000) (Sigma) at room temperature for 2 hr. The antigen-antibody complexes' chemiluminescence was detected by using the ECL detection kit (Pierce).

[3] = tested on: TOPFLASH promoter activity in rat primary HSCs; assay: TOPFLASH TCF promoter-luciferase reporter, transient transfection by electroporation; format: cell-based; details: day 7 primary HSCs
Protocol: TCF promoter-luciferase construct TOPFLASH (a gift from Dr. Randall Moon, Univ. of Washington, Seattle, Wash.) or a KB luciferase construct was used for transient transfection in the rat primary HSCs by electroporation using the NeonTM Transfection System (Invitrogen). The Renilla pRL-TK construct was used for standardization for transfection efficiency. Cell lysates were analyzed by the dual luciferase assay (Promega) on a luminometer. To assess the activity of IKK, IKK was immunoprecipitated by IKKα antibody and protein G-Sepharose, and the assay was performed at 30° C. for 1 hr in buffer containing 20 mM Tris HCl, pH 7.5, 20 mM MgCl2, 2 mM dithiothreitol, 20 μM ATP, 2 μg GST-IκBα, and [γ-32P]ATP. The reaction was stopped by addition of […] buffer and was resolved by 10% SDS-PAGE followed by a transfer onto a membrane for imaging.

[4] = tested on: BDL-induced cholestatic liver fibrosis in mice; assay: Bile duct ligation (BDL) cholestatic liver fibrosis model; format: in vivo
Protocol: Male C57B1/6 and collagen α1(I) promoter-GFP (Coll-GFP) mice were subjected to ligation and scission of the common bile duct (BDL) to induce cholestatic liver fibrosis for HSC isolation or testing the therapeutic efficacy of RA. For the latter, after one week following BDL, RA was intraperitoneally injected daily at the dose of 0.1 mg/25 g body weight until the animals were sacrificed one week later for Sirius-red staining morphometry, immunohistochemistry, and qPCR analysis of the livers as described below.
After 3 days of the extract treatment, the cells were washed with cold phosphate-buffered saline (PBS) and fixed in 4% paraformaldehyde (PF). To stain α-smooth muscle actin (SMA), a fluorescein isothiocyanate (FITC) conjugated antibody (1:200, Sigma, Saint Louis, Mo.) was added as a primary antibody at 4° C. for overnight. After washing and blocking with 5% nonfat milk, fluorescence images were viewed by a Nikon microscope as described above. For intracellular lipid staining, HSCs treated with the extract for 3 days were cultured with retinol (5 μM) and palmitic acid (100 μM) (Sigma, Saint Louis, Mo.) for 48 hr, and fixed with 10% formalin in PBS. Oil Red O (0.5% w/v in isopropanol) was diluted with 67% volume of water, filtered, and added to the fixed HSCs. Apoptosis was detected in cultured HSCs and liver sections from BDL mice using a Cell Death Detection kit from Roche. For liver section immunostaining, liver tissues were fixed with 4% PF and embedded in freezing medium. Cryosections (7 μm) were washed with PBS, digested with 20 μg/ml proteinase K (Invitrogen, Carlsbad, Calif.), and blocked with 5% goat serum and 0.2% bovine serum albumin. The sections were then incubated with mouse anti-SMA antibody conjugated with FITC (Sigma, 1:400) and rabbit anti-desmin antibody (Thermo Scientific, Rockford, Ill., 1:400). After washing, the sections were incubated with goat anti-rabbit antibody conjugated with AlexaFluor 568 (Invitrogen, 1:400) and mouse anti-FITC antibody conjugated with DyLight 488 (Jackson ImmunoResearch, West Grove, Pa., 1:400). The sections were mounted with 4,6-diamidino-2-phenylindole (DAPI) (Invitrogen) and fluorescence images were visualized under a microscope. To quantify the percentage and density of HSCs in the liver after BDL with or without treatment of RA, 6 images were randomly captured using a 10× objective lens in 3 different sections and SMA+ and desmin+HSCs in the parenchyma were counted.
Total RNA was extracted from the cells using TRIzol reagent (Invitrogen) or RNeasy Mini kit (Qiagen). One microgram of RNA was reverse transcribed to cDNA by using SuperScript III First-Strand Synthesis System (Invitrogen) and amplified by 40 cycles using primers listed below and the SYBR Green PCR Master mix reagent (AB Applied Biosystem). Each threshold cycle (Ct) value was first normalized to the 36B4 Ct value of a sample and subsequently compared between the treatment and control samples.

[5] = RA ip daily 0.1 mg/25 g, immunohistochemistry SMA/Desmin, vs vehicle
[6] = RA ip daily 0.1 mg/25 g, vs vehicle

SMILES	morphologic reversal of activated HSCs with increased UV-excited autofluorescence [1]	expression of Necdin [2]	expression of Wnt3a [2]	expression of Wnt10b [2]	EZH2 expression [2]	H3K27me2 at the Pparγ exon (Pparγ gene)	MeCP2 enrichment in the Pparγ promoter (Pparγ gene)	MeCP2 protein level (rat HSCs)	TOPFLASH activity [3]	TUNEL+HSCs or hepatocytes in the liver parenchyma ([4]; RA ip daily 0.1 mg/25 g)	density of Desmin+HSCs (increased by BDL) ([4]; RA ip daily 0.1 mg/25 g)	liver to body weight percentage ([4]; RA ip daily 0.1 mg/25 g body weight during second week of BDL)	plasma ALT levels ([4]; RA ip daily 0.1 mg/25 g body weight during second week, p=0.29 vs vehicle)	liver fibrosis by digital morphometric analysis of Sirius red-stained collagen fibers ([4]; RA ip daily 0.1 mg/25 g body weight during second week, vs vehicle)	reduction of the percentage of SMA+HSCs [4, 5] [%]	reduction of the percentage of SMA+MFs [4, 5] [%]	hepatic mRNA level of SMA [4, 6]	hepatic mRNA level of α1(I) procollagen [4, 6]
O=C(O)[C@H]1O[C@@H](Oc2cc3oc(-c4ccccc4)cc(=O)c3c(O)c2O)[C@H](O)[C@@H](O)[C@@H]1O [BC, baicalin]	morphologically reverse activated HSCs to quiescent cells	reduced	suppress	suppress	reduce	reduce	reduce	reduce	suppress									
O=C(/C=C/c1ccc(O)c(O)c1)O[C@H](Cc1ccc(O)c(O)c1)C(=O)O [RA, rosmarinic acid]	morphologically reverse activated HSCs to quiescent cells	reduced	suppress	suppress	reduce	reduce	reduce	reduce	suppress	No TUNEL+HSCs or hepatocytes are detected	no effect	6.8 ± 0.7	157+71	significant attenuation	75	40	significantly reduced	significantly reduced
